How the values were obtained:
[1] = tested on: Caspase 9; test: Western blot of Caspase 9 activation in M21 tumours grown in nude mice; assay type: in vivo; details: 24 h and 36 h after single injection
Source text: Caspase 9 is therefore a potential downstream effector of PRIMA-1- and p53-induced apoptosis in melanoma cells in vivo.

[2] = tested on: M21 melanoma cells (wt p53); test: M21 melanoma tumour growth s.c. in C57/BL nude mice; assay type: in vivo; details: 100 mg/kg for 6 d starting 6 d after inoculation, versus PBS control
Protocol: (§1) Tumour volumes were monitored for melanoma growth, as described in the preceding paragraph. Tumour volume over time was determined by the formula: width^2×length×0,52. […] In the Figure, ♦ represents M21; □ M21L; ▴ Lp53His175-0; and ★ Lp53His175-8. M21Lp53His175-0 and M21Lp53His175-8 formed large tumours similar in size to M21 tumours. However, M21L cells lacking integrin αvβ3 typically grew only minimal or developed no tumours.
(§2) To test if restoration of an active wt p53 conformation by PRIMA-1 could also induce melanoma cell apoptosis in vivo and thereby block melanoma tumour growth, M21 and C8161 melanoma cells (1,5×10^6) were injected s.c. into the back of 6-week-old C57/BL nude mice. The mice were treated with or without PRIMA-1 (100 mg/kg) for 6 d starting 6 d after tumour innoculation.

[3] = tested on: p53; test: Western blot of p53 acetylation and p53 target proteins in M21 tumours grown in nude mice after a single PRIMA-1 injection; assay type: in vivo; details: 24 h and 36 h after single injection
Source text: Thus, acetylation of p53-Lys382 is potentially involved in p53 activation by PRIMA-1, while Apaf-1 and PUMA are potential downstream mediators of PRIMA-1- and p53-induced melanoma cell apoptosis in vivo.

[4] = tested on: M21 human melanoma cells; test: Apoptosis by FITC-Annexin-V staining / FACS of M21 melanoma cells; assay type: cell-based
Protocol: With reference to FIG. 1A, the maternal human melanoma cells M21, expressing integrin αvβ3, and a subpopulation, M21L, lacking integrin αvβ3 were cultured in a three-dimensional collagen gel (3D-collagen). At indicated times, apoptosis was detected by FITC-Annexin-V staining.
Apoptosis was analyzed in M21 cells grown under 2D culture conditions or within 3D-collagen with or without PRIMA-1 treatment for 16, 24, 36 and 48 h. […] This also verifies the results using dn p53 and p53-siRNA (FIG. 3) in an independent manner.

[5] = tested on: C8161 melanoma cells (truncated, unfunctional p53); test: C8161 melanoma tumour growth s.c. in C57/BL nude mice; assay type: in vivo; details: 100 mg/kg for 6 d starting 6 d after inoculation
Protocol: as §1, §2

[6] = molecular target: T1, wt p53 (Homo sapiens, UniProt P04637); test: p53 conformation by ELISA with Pab 1620, Pab 240 and DO 1 in melanoma cells in 3D-collagen; assay type: cell-based
T1 construct: endogenous in cells; host or cells: M21, M21L and AA human melanoma cells
Protocol: Data shown in FIG. 2D represents Pab 1620 and Pab 240 reactivity as percentage of D01 reactivity (total p53).
PRIMA-1 is a substance known from WO0224692 to be able to reactivate the apoptosis-inducing function of mutant p53 proteins. […] The p53 conformation was examined as described above. […] To this end, p53 conformation was also analyzed in AA human melanoma cells expressing αv β3 integrin and wt p53 before and after incubation within 3D collagen (FIG. 4B).

[7] = tested on: caspase-8; test: Western blot for cleavage of caspase-8, control Jurkat cells; assay type: cell-based; details: cycloheximide-treated Jurkate cells

O=C1C2CCN(CC2)C1(CO)CO [PRIMA-1, 2,2-bis(hydroxymethyl)-1-azabicyclo[2.2.2]octan-3-one]
activation of Caspase 9 [1]: activation of Caspase 9 | melanoma growth (mean tumour volume) [2]: significantly inhibited | Apaf-1 protein level [3]: induces | PUMA protein level [3]: induces | acetylation of p53-Lys382 [3]: induces | apoptosis (Annexin V staining) ([4]; 100 μM PRIMA-1, 16, 24, 36 and 48 h, 3D collagen versus 2D culture): promoted apoptosis in M21 cells (αvβ3+) within 3D collagen to a much higher degree than in 2D culture | apoptosis (Annexin-V staining) ([4]; 36 h in 3D collagen, 80 μM PRIMA-1): induces melanoma cell apoptosis | melanoma growth (mean tumour volume) [5]: no effect | p53 conformation (Pab 1620 / Pab 240 reactivity) ([6]; AA human melanoma cells (αvβ3, wt p53), 100 μM PRIMA-1, 5 d in 3D collagen): enforced p53 into an active conformation | p53 conformation (Pab 1620 / Pab 240 reactivity) ([6]; M21 cells (αvβ3+), 100 μM PRIMA-1, 3D-collagen, 7 d): restore active p53 conformation from an unfolded inactive state

C[C@@H]1C[C@@H]([C@H](O)CC2CC(=O)NC(=O)C2)C(=O)[C@@H](C)C1 [cycloheximide]
caspase-8 cleavage [7]: displayed caspase-8 cleavage

Z-LEHD-FMK x TFA [reference compound]
effect on PRIMA-1 induced apoptosis ([4]; 36 h in 3D-collagen, with 80 μM PRIMA-1): blocked

Reference: patent publication US20060276502A1, “Pharmaceutical use of 1-azabicyclo[2.2.2]octanes and a method of testing compounds for the ability of activating inactive wt p53” (priority 2003, published 2006)
